Test system: IFNγ-Induced NO Production
Test: Nitric Oxide Suppression Assay (Suppression of IFNγ-Induced NO Production)
Type: cell-based
Conditions: RAW264.7; RAW 264.7 mouse macrophage cells; 2 hour pre-treatment with compound (3 μM to 0.3 nM, 10 point curve); 20 ng/mL interferon gamma, ~18 hour; Griess detection; n=2-3 in duplicates
Experimental: RAW 264.7, a mouse macrophage cell line, was obtained from American Type Culture Collection (Manassas Va.) and maintained in the log phase of growth in Dulbecco's Modified Eagle's Medium (DMEM), 10% heat inactivated fetal calf serum and 100 units/mL antibiotic-antimycotic (AA). Cells were cultured and maintained in a humidified incubator at 37° C. under 5% CO2 and 95% air. Cells were sub-cultured every 3 days by scraping and were not used beyond passage 20. All cell culture supplies were obtained from Life Technologies (Grand Island, N.Y.).
RAW 264.7 cells were plated 1 day in advance of experiment at a concentration of 80,000 cells/well onto CellBIND® 96 well plates (Corning, N.Y.) in a total volume of 100 μL. The next day, pre-treat cells with compounds (from 3 μM to 0.3 nM serially diluted in a 10 point curve) from a 10× stock by adding 10 μL per well in complete DMEM media containing 10% fetal calf serum. The plates were centrifuged for 3 minutes at 400×g at room temperature followed by 2 hour incubation at 37° C. The cells were then incubated overnight at 37° C. with 10 μL of the insult, interferon gamma (R&D Systems, Minneapolis, Minn.), from a 10× stock for a final concentration of 20 ng/mL. The plates were centrifuged for 3 minutes at 400×g at room temperature followed by ˜18 hour incubation at 37° C. The following day, transfer 50 μL cell culture supernatant from each well into a clear bottom 96 well plate and follow the instructions from Promega's Griess Detection Kit #G2930 (Madison, Wis.) which involves the addition of 50 μL of the provided sulfanilamide solution for a 5-10 minute incubation at room temperature. Next add 50 μL of the provided N-1-napthylethylenediamine dihydrochloride (NED) solution for a 5-10 minute incubation at room temperature and protected from light. If any air bubbles were introduced into the well, the plates need to be centrifuged for 5 minutes at 400×g at room temperature to avoid interference with absorbance readings. The plates were read for absorbance within 30 minutes with a filter between 520 nm and 550 nm.
For the ability of compounds to suppress the increase in nitric oxide release, the percent maximal intensity of nitric oxide detected in each well was normalized to that induced by the peak value for 20 ng/mL of interferon gamma alone and plotted against the compound concentration to calculate IC50 values and to control for plate-to-plate variability. Concentration-response data were analyzed using GraphPad Prism (San Diego, Calif.); the IC50 values were derived from a single curve fit to the mean data of n=2-3, in duplicates.
All compounds were dissolved in dimethyl sulfoxide at 10 mM stock solutions and tested at a concentration that the dimethyl sulfoxide levels never exceeded 1%.

Structure (SMILES)	IC50 [nM]
C[C@@H]1C(=O)C(C#N)=C[C@]2(c3ccccc3)c3nn(C)c(-c4ccccc4)c3CC[C@@H]12 (racemic) [Example 2, rac-(5aS,6S,9aR)-2,6-dimethyl-7-oxo-3,9a-diphenyl-4,5,5a,6,7,9a-hexahydro-2H-benzo[g]indazole-8-carbonitrile]	16.9
C[C@@H]1C(=O)C(C#N)=C[C@]2(c3ccccc3)c3c(c(-c4ccccc4)nn3C)CC[C@@H]12 (racemic) [Example 3, rac-(5aS,6S,9aR)-1,6-dimethyl-7-oxo-3,9a-diphenyl-4,5,5a,6,7,9a-hexahydro-1H-benzo[g]indazole-8-carbonitrile]	7.19
COc1cccc([C@]23C=C(C#N)C(=O)[C@@H](C)[C@@H]2CCc2cn(C)nc23)c1 (racemic) [Example 4, rac-(5aS,6S,9aR)-9a-(3-methoxyphenyl)-2,6-dimethyl-7-oxo-4,5,5a,6,7,9a-hexahydro-2H-benzo[g]indazole-8-carbonitrile]	114
COc1cccc([C@]23C=C(C#N)C(=O)[C@@H](C)[C@@H]2CCc2cnn(C)c23)c1 (racemic) [Example 5, rac-(5aS,6S,9aR)-9a-(3-methoxyphenyl)-1,6-dimethyl-7-oxo-4,5,5a,6,7,9a-hexahydro-1H-benzo[g]indazole-8-carbonitrile]	41.3
C[C@@H]1C(=O)C(C#N)=C[C@]2(c3ccccc3)c3[nH]nc(-c4ccccc4)c3CC[C@@H]12 (racemic) [Example 6, rac-(5aS,6S,9aR)-6-methyl-7-oxo-3,9a-diphenyl-4,5,5a,6,7,9a-hexahydro-1H-benzo[g]indazole-8-carbonitrile]	37.5
C[C@@H]1C(=O)C(C#N)=C[C@]2(c3ccccc3)c3nc(-c4ccccc4)ncc3CC[C@@H]12 (racemic) [Example 7, rac-(6aS,7S,10aR)-7-methyl-8-oxo-2,10a-diphenyl-5,6,6a,7,8,10a-hexahydrobenzo[h]quinazoline-9-carbonitrile]	30.4
COc1nc(-c2ccccc2)nc2c1CC[C@H]1[C@H](C)C(=O)C(C#N)=C[C@]21c1ccccc1 (racemic) [Example 8, rac-(6aS,7S,10aR)-4-methoxy-7-methyl-8-oxo-2,10a-diphenyl-5,6,6a,7,8,10a-hexahydrobenzo[h]quinazoline-9-carbonitrile]	96.3
C[C@@H]1C(=O)C(C#N)=C[C@]2(c3ccccc3)c3nc(Nc4ccccc4)ncc3CC[C@@H]12 (racemic) [Example 9, rac-(6aS,7S,10aR)-2-anilino-7-methyl-8-oxo-10a-phenyl-5,6,6a,7,8,10a-hexahydrobenzo[h]quinazoline-9-carbonitrile]	5.99
Cc1ncc2c(n1)[C@@]1(c3ccccc3)C=C(C#N)C(=O)[C@@H](C)[C@@H]1CC2 (racemic) [Example 33, rac-(6aS,7S,10aR)-2,7-dimethyl-8-oxo-10a-phenyl-5,6,6a,7,8,10a-hexahydrobenzo[h]quinazoline-9-carbonitrile]	23
C[C@@H]1C(=O)C(C#N)=C[C@]2(Cc3ccccc3)c3nn(C)cc3CC[C@@H]12 (racemic) [Example 162, rac-(5aS,6S,9aR)-9a-benzyl-2,6-dimethyl-7-oxo-4,5,5a,6,7,9a-hexahydro-2H-benzo[g]indazole-8-carbonitrile]	231
C[C@@H]1C(=O)C(C#N)=C[C@]2(Cc3ccccc3)c3c(cnn3C)CC[C@@H]12 (racemic) [Example 163, rac-(5aS,6S,9aR)-9a-benzyl-1,6-dimethyl-7-oxo-4,5,5a,6,7,9a-hexahydro-1H-benzo[g]indazole-8-carbonitrile]	406
C[C@@H]1C(=O)C(C#N)=C[C@]2(Cc3ccccc3)c3nn(C)c(-c4ccccc4)c3CC[C@@H]12 (racemic) [Example 164, rac-(5aS,6S,9aR)-9a-benzyl-2,6-dimethyl-7-oxo-3-phenyl-4,5,5a,6,7,9a-hexahydro-2H-benzo[g]indazole-8-carbonitrile]	65

Reference: US9464082B2, “Aryl and arylalkyl substituted pyrazolyl and pyrimidinyl tricyclic enones as antioxidant inflammation modulators” (AbbVie Inc., priority 2014, dated 2016)
